Test [1] concerns the target recombinant human Bcl-2 D103Y protein (Homo sapiens (Human), UniProt P10415, D103Y). Put plainly: Bcl-2-D103Y Biochemical Assay (TR-FRET). Conditions: for IC50: TR-FRET, FITC labeled Bak peptide; for Ratio of Bcl-2 D103Y/Bcl-2 WT: ratio of IC50. It is filed as binding. A digest of the protocol:
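Recombinant human Bcl-2 D103Y binding to its ligand measured by TR-FRET (ex 337 nm, em 490/520 nm) with increasing compound concentrations. Percent inhibition from the 490/520 nm ratio; IC50 from four-parameter logistic fit.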
A general note: In TR-FRET formats the signal depends on donor and acceptor labels being close together.

Test [2] has as its system RS4;11 (BCL-2 dependent acute lymphoblastic leukemia cell line). Put plainly: RS4;11 Cell Proliferation Assay. Conditions: Homo sapiens, RS4-11, RS4;11 cells, read-out: Cellular proliferation assay (IC50, nM) RS4. Format: cell-based. A digest of the protocol: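 RS4;11 cells, 50,000 per well in RPMI-1640 with 10% FBS, treated 48 h at 37 °C with a 10-point dilution series topping at 1 μM. Viability read by CellTiter-Glo ATP luminescence; mean IC50 reported.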

Test [3] concerns the target recombinant human Bcl-2-G101V protein (Homo sapiens (Human), UniProt P10415, G101V). Put plainly: Bcl-2-G101V TR-FRET Assay. It is filed as binding. The following applies: Bcl-2 G101V mutant, TR-FRET; read-out: Biochemical assay (IC50, nM) Bcl-2 G101V. In outline:
(§1)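 Compounds were titrated at increasing concentrations against the Bcl-2-G101V–ligand interaction. TR-FRET signals were then read (ex 337 nm; em 490/520 nm). Percent inhibition was derived from the 490-to-520 nm ratio, and IC50 from a four-parameter logistic equation.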

Test [4] has as its system recombinant human Bcl-2-G101V protein. Briefly: Bcl-2-G101V TR-FRET Assay. Format: binding. The following applies: ratio of biochemical IC50 Bcl-2 G101V / Bcl-2 WT. In outline:
as §1

Test [5] addresses Recombinant human Bcl-2 protein (Homo sapiens (Human), UniProt P10415). Put plainly: Bcl-2 TR-FRET Assay. Format: binding. A digest of the protocol:
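Compounds were pre-incubated with 0.05 nM recombinant Bcl-2 for 0.5 h at room temperature in potassium phosphate buffer, pH 7.5. FITC-Bak peptide (0.5 nM) and Tb-cryptate antibody were then added for 1 h. Percent inhibition from TR-FRET signals gave IC50 values.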

The subject of test [6] is BCL-2 G101V knock-in cell line H96 (derive from RS4;11). Briefly: Bcl 2-G101V Knock-In RS4;11 Cell Proliferation Assay. The following applies: Homo sapiens, RS4;11 Bcl-2 G101V knock-in clone H96, 48 hrs, CellTiter-GLO, read-out: Cellular proliferation assay (IC50, nM) RS4. Format: cell-based. A digest of the protocol: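 H96, a CRISPR-generated RS4;11 clone carrying BCL2-G101V knock-in (WES/RNA-seq validated), seeded 50,000 per well and exposed 48 h at 37 °C to 10-point dilutions topping at 1 or 10 μM. Viability by CellTiter-Glo luminescence; mean IC50.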
(In general: Cellular ATP, detected with luciferase, serves as a proxy for viable cell number.)

The mark [7] stands for this setting: Bcl-2 wild type, TR-FRET, read-out: Biochemical assay (IC50, nM) Bcl-2 WT.
The mark [8] stands for this setting: wild type Bcl-2, unit inferred, read-out: Bcl-2 WT.

Molecules are shown by their SMILES. Read-outs that look alike come from different tables or passages of the source.

For `[2H]C([2H])([2H])Oc1cc(CN2CCN(C3CC4(C3)CN(c3ccc(C(=O)NS(=O)(=O)c5ccc(NC[C@H]6CC[C@](C)(O)CC6)c([N+](=O)[O-])c5)c(Oc5cnc6[nH]cc(F)c6c5)c3)C4)[C@H](c3ccccc3C(C)C)C2)cc2ccoc12` [Example 322, 2-((3-fluoro-1H-pyrrolo[2,3-b]pyridin-5-yl)oxy)-N-((4-((((1r,4r)-4-hydroxy-4-methylcyclohexyl)methyl)amino)-3-nitrophenyl)sulfonyl)-4-(6-((R)-2-(2-isopropylphenyl)-4-((7-(methoxy-d3)benzofuran-5-yl)methyl)piperazin-1-yl)-2-azaspiro[3.3]heptan-2-yl)benzamide], the IC50 in test [1] worked out at 0.36 nM; in test [2], 0.18 nM; in test [3], 0.72 nM; in test [5] (setting [7]) it was 0.25 nM; in test [5] (setting [8]) it was 0.25 nM; in test [6], 0.32 nM. Besides, the “Ratio of Bcl-2 D103Y/Bcl-2 WT” value in test [1] amounted to 1.4. Besides, the “Ratio of Bcl-2 G101V/WT” value in test [4] amounted to 2.9.

Regarding `[2H]C([2H])([2H])Oc1cc(CN2CCN(C3CC4(C3)CN(c3ccc(C(=O)NS(=O)(=O)c5ccc(NC[C@H]6CC[C@](C)(O)CC6)c([N+](=O)[O-])c5)c(Oc5cnc6[nH]ccc6c5)c3)C4)[C@H](c3ccccc3C(C)C)C2)cc2ccoc12` [Example 323, 2-((1H-pyrrolo[2,3-b]pyridin-5-yl)oxy)-N-((4-((((1r,4r)-4-hydroxy-4-methylcyclohexyl)methyl)amino)-3-nitrophenyl)sulfonyl)-4-(6-((R)-2-(2-isopropylphenyl)-4-((7-(methoxy-d3)benzofuran-5-yl)methyl)piperazin-1-yl)-2-azaspiro [3.3]heptan-2-yl)benzamide], the IC50 amounted to 0.19 nM in test [1]; 0.21 nM in test [2]; 0.45 nM in test [3]; 0.22 nM in test [5] (setting [7]); 0.22 nM in test [5] (setting [8]); 0.42 nM in test [6]. Moreover, the “Ratio of Bcl-2 D103Y/Bcl-2 WT” value in test [1] came out at 0.87. In addition, the “Ratio of Bcl-2 G101V/WT” value in test [4] amounted to 2.1.

With `[2H]C([2H])([2H])Oc1cc(CN2CCN(C3CC4(C3)CN(c3ccc(C(=O)NS(=O)(=O)c5ccc(NC[C@H]6CC[C@](C)(O)CC6)c([N+](=O)[O-])c5)c(Oc5cnc6[nH]ccc6c5)c3)C4)[C@H](c3ccccc3C(C)C)C2)cc2c1OCC2(C)C` [Example 324, 2-((1H-pyrrolo[2,3-b]pyridin-5-yl)oxy)-N-((4-((((1r,4r)-4-hydroxy-4-methylcyclohexyl)methyl)amino)-3-nitrophenyl)sulfonyl)-4-(6-((R)-2-(2-isopropylphenyl)-4-((7-(methoxy-d3)-3,3-dimethyl-2,3-dihydrobenzofuran-5-yl)methyl)piperazin-1-yl)-2-azaspiro[3.3]heptan-2-yl)benzamide], the IC50 in test [1] came to 0.14 nM; in test [2] it was 0.22 nM; in test [3], 0.31 nM; in test [5] (setting [7]), 0.16 nM; in test [5] (setting [8]), 0.16 nM; in test [6] it was 0.51 nM. For the same molecule, the “Ratio of Bcl-2 D103Y/Bcl-2 WT” value in test [1] stood at 0.87. The “Ratio of Bcl-2 G101V/WT” value in test [4] is reported as 1.9.

With `[2H]C([2H])([2H])Oc1cc(CN2CCN(C3CC4(C3)CN(c3ccc(C(=O)NS(=O)(=O)c5ccc(NC[C@H]6CC[C@](C)(O)CC6)c([N+](=O)[O-])c5)c(Oc5cnc6[nH]cc(F)c6c5)c3)C4)[C@H](c3ccccc3C(C)C)C2)cc2c1OCC2(C)C` [Example 326, 2-((3-fluoro-1H-pyrrolo[2,3-b]pyridin-5-yl)oxy)-N-((4-((((1r,4r)-4-hydroxy-4-methylcyclohexyl)methyl)amino)-3-nitrophenyl)sulfonyl)-4-(6-((R)-2-(2-isopropylphenyl)-4-((7-(methoxy-d3)-3,3-dimethyl-2,3-dihydrobenzofuran-5-yl)methyl)piperazin-1-yl)-2-azaspiro[3.3]heptan-2-yl)benzamide], the IC50 in test [1] was 0.25 nM; in test [2], 0.19 nM; in test [3], 0.49 nM; in test [5] (setting [7]), 0.17 nM; in test [5] (setting [8]), 0.17 nM; in test [6], 0.34 nM. Moreover, the “Ratio of Bcl-2 D103Y/Bcl-2 WT” value in test [1] was 1.5. Also, the “Ratio of Bcl-2 G101V/WT” value in test [4] was 3.

Turning to `COc1cc(CN2CCN(C3CC4(C3)CN(c3ccc(C(=O)NS(=O)(=O)c5ccc(NC[C@H]6CC[C@](C)(O)CC6)c([N+](=O)[O-])c5)c(Oc5cnc6[nH]cc(F)c6c5)c3)C4)[C@H](c3ccccc3C(C)C)C2)cc2c1OC(C)(C)CC2` [Example 337, 2-((3-fluoro-1H-pyrrolo[2,3-b]pyridin-5-yl)oxy)-N-((4-((((1r,4r)-4-hydroxy-4-methylcyclohexyl)methyl)amino)-3-nitrophenyl)sulfonyl)-4-(6-((R)-2-(2-isopropylphenyl)-4-((8-methoxy-2,2-dimethylchroman-6-yl)methyl)piperazin-1-yl)-2-azaspiro[3.3]heptan-2-yl)benzamide], the IC50 amounted to 0.39 nM in test [1]; 0.18 nM in test [2]; 0.37 nM in test [3]; 0.12 nM in test [5] (setting [7]); 0.12 nM in test [5] (setting [8]); 0.63 nM in test [6]. Further, the “Ratio of Bcl-2 D103Y/Bcl-2 WT” value in test [1] was determined as 3.2. The “Ratio of Bcl-2 G101V/WT” value in test [4] came out at 3.

Turning to `COc1cc(CN2CCN(C3CC4(C3)CN(c3ccc(C(=O)NS(=O)(=O)c5ccc(NC[C@H]6CC[C@](C)(O)CC6)c([N+](=O)[O-])c5)c(Oc5cnc6[nH]ccc6c5)c3)C4)[C@H](c3ccccc3C(C)C)C2)cc2cc(C)oc12` [Example 339, 2-((1H-pyrrolo[2,3-b]pyridin-5-yl)oxy)-N-((4-((((1r,4r)-4-hydroxy-4-methylcyclohexyl)methyl)amino)-3-nitrophenyl)sulfonyl)-4-(6-((R)-2-(2-isopropylphenyl)-4-((7-methoxy-2-methylbenzofuran-5-yl)methyl)piperazin-1-yl)-2-azaspiro[3.3]heptan-2-yl) benzamide], the IC50 in test [1] was determined as 0.71 nM; in test [2], 0.19 nM; in test [3] it was 0.97 nM; in test [5] (setting [7]) it was 0.28 nM; in test [5] (setting [8]), 0.28 nM; in test [6], 0.52 nM. In test [1], the “Ratio of Bcl-2 D103Y/Bcl-2 WT” value stood at 2.5. The “Ratio of Bcl-2 G101V/WT” value in test [4] is given as 3.5.

In the case of `COc1cc(CN2CCN(C3CC4(C3)CN(c3ccc(C(=O)NS(=O)(=O)c5ccc(NC[C@H]6CC[C@](C)(O)CC6)c([N+](=O)[O-])c5)c(Oc5cnc6[nH]ccc6c5)c3)C4)[C@H](c3ccccc3C(C)C)C2)ccc1OC1CC1` [Example 343, 2-((1H-pyrrolo[2,3-b]pyridin-5-yl)oxy)-4-(6-((R)-4-(4-cyclopropoxy-3-methoxybenzyl)-2-(2-isopropylphenyl)piperazin-1-yl)-2-azaspiro[3.3]heptan-2-yl)-N-((4-((((1r,4r)-4-hydroxy-4-methylcyclohexyl)methyl)amino)-3-nitrophenyl)sulfonyl)benzamide], the IC50 in test [1] came out at 0.09 nM; in test [2] it was 0.11 nM; in test [3], 0.3 nM; in test [5] (setting [7]), 0.11 nM; in test [5] (setting [8]) it was 0.11 nM; in test [6] it was 0.25 nM. Moreover, the “Ratio of Bcl-2 D103Y/Bcl-2 WT” value in test [1] is listed as 0.8. In addition, the “Ratio of Bcl-2 G101V/WT” value in test [4] is on record as 2.7.

Values taken from patent US20240376097A1, “BCL-2 Inhibitor” (BeiGene Ltd., priority 2020, published 2024).
